Experimental data reported in patent US20210214285A1, “EMULSION FOR TREATING UREA-CONTAINING FERTILIZERS” (EUROCHEM AGRO GMBH, priority 2018, published 2021).
Converted amounts (≈) assume the structure as drawn.

Assays:
[1] = Storage stability test of treated urea fertilizers (NBPT and DMPSA content over time); format: physicochemical; conditions: urea coated with DMPSA/NBPT emulsion (invention, FIG. 2) versus sequential application (comparative, FIG. 1); stored 90 days under standard conditions in a climate-controlled cabinet
Description: 20 kg of granulated urea was initially charged in a mixer. 35 g of the NBPT formulation and 79 g of DMPSA formulation were introduced into a spray bottle and shaken until a homogeneous emulsion had formed. The formulation emulsion was immediately sprayed onto the urea, with intermittent shaking of the spray bottle in order to prevent settling of the emulsion. The mixer was operated for a further 10 minutes until a homogeneous product was obtained.
In a comparative experiment, identical amounts of DMPSA and NBPT were applied to urea. DMPSA formulation was applied first to the urea by the method described above, and the NBPT formulation was applied after drying.
Storage stability tests were conducted for both the urea fertilizers treated. They were stored for a period of 90 days under standard conditions in a climate-controlled cabinet. The NBPT and DMPSA content was determined at time intervals.

[2] = Comparative experiment: urea treated with DMPP/NBPT emulsion, degradation on storage (HPLC); conditions: for amount broken down: after a period of 7 days
[3] = at 20° C.; cited from earlier work

Row | Structure (SMILES) | decrease in NBPT and DMPSA content over time [1] | degradation characteristics [2] | amount broken down [2] | water solubility [3] [µg/mL]
1 | CCCCNP(N)(N)=S [NBPT, N-(n-butyl)-thiophosphoric acid triamide] | significantly smaller | rapid degradation characteristics | 100% | –
2 | Cc1cn(C(CC(=O)O)C(=O)O)nc1C (stereo not shown) [DMPSA, 2-(N-3,4-dimethylpyrazole)succinic acid] | significantly smaller | – | – | –
3 | Cc1c[nH]nc1C.O=P(O)(O)O [DMPP, 3,4-dimethylpyrazole phosphate, reference compound] | – | rapid degradation characteristics | about 50% | –
4 | CCCCCC(CO)CCC (stereo not shown) [2-Propylheptan-1-ol] | – | – | – | 58 (≈ 366 µM)
